The test system of experiment [1] is ERK and PI3 kinase/AKT/mTOR/S6 kinase (S6K) signaling pathways in TF cells. In words: Immunoblotting of signaling pathways in TF cells. Type of experiment: cell-based, human. Conditions: short-term treatment (two hours). The method, then:
(§1) A) The activity of major signaling pathways (ERK, PI3K/AKT/mTOR/S6K) in response to the different treatments (sunitinib (Su), sorafenib (So) and everolimus (Ev)) was determined by analysis of the presence of the phosphorylated forms of the kinases (pERK, pAKT, pS6K) in TF cells following a short-term treatment (two hours) by immunoblotting. Tubulin is shown as a loading control. B) Quantification of the experiments shown in A. The percentage of phosphorylated kinases or their total amount is indicated with respect to the reference value (100%) for the cell without any inhibitor.

Experiment [2] concerns M cells. Briefly: MTT cell proliferation assay, M cells (second TFE3 RCC patient). As to conditions: for IC50 compared with 786-O cells: 48 hours of treatment; for In vitro sensitivity of the cells to the drug: sensitive if IC50 lower than or equal to that in 786-O cells. In kind it is cell-based, human. The method, then:
(§2) Tumor fragments were treated with collagenase overnight at 37°C and/or mechanically disaggregated with scalpels. […] However, we were able to obtain cells from the adjacent invaded tissues (kidney vein, adrenal gland and lymph nodes). Tumor cells (TF, cells from the first TFE3 patient, M cells from invaded tissue of the second TFE3 patient, CC cells from the ccRCC patient) were suspended in cell culture medium specific for renal cells (PromoCell, Heidelberg Germany). The FISH, immunohistochemical and Western blot analyses of the initial tumor and cultured tumor cells, even after many passages, confirmed the presence of a TFE3-NONO fusion and over-expression of the fusion protein (Fig. 1A, 1B, 1C). The 786-O cells were from the American Type Culture Collection (ATCC) and cultured in the same defined medium.
(§3) To establish a correlation between the therapeutic response observed in the patients and response of the cells derived from the tumors, we performed in vitro proliferation assays in the presence of increasing concentrations of the different drugs used to treat the patients (from 0.1 µM to 100 µM). We used 786-O cells as a reference since their proliferation is inhibited by sunitinib [22]–[23], sorafenib [24]–[25] and mTOR inhibitor [26]. We considered the cells to be sensitive to a particular drug if the concentration giving 50% inhibition of cell proliferation (IC50) was lower than or equal to the IC50 in 786-O cells and considered to be resistant if the IC50 was higher than in 786-O cells. The IC50 of 786-O cells for sunitinib, everolimus and sorafenib were respectively 6±1, 10±1 and 6±1 µM. Following 48 hours of treatment the IC50 for sunitinib was equivalent for 786-O, CC and M cells and higher for TF cells (Fig. 2).
(§4) Figure 2 In vitro sensitivity of the TF, CC and M cells to targeted therapies. The IC50 of the different drugs was determined using the MTT test with concentrations of the drugs ranging from 0.1 µM to 100 µM in 786-O (786), TF, CC and M cells. The means SEMs and p-values (Student t test), in comparison with the IC50 for 786-O cells, the reference value, are shown. *p<0.05; **p<0.01 (Student t test). TEXT PRINTED IN THE PICTURE: Sunitinib: Response (786): +; Response (CC): +; Response (TF): -; Response (M): + | Everolimus: Response (786): +; Response (CC): -; Response (TF): +; Response (M): + | Sorafenib: Response (786): +; Response (CC): -; Response (TF): +; Response (M): + DOUBTS OF THE COPYIST ABOUT THIS PICTURE: No IC50 numbers are printed in the picture; they appear only as bars and were not read off. Only the printed Response classes (+/-) are copied.

Experiment [3] relates to CC cells. Briefly: MTT cell proliferation assay, CC cells (ccRCC patient). Type of experiment: cell-based, human. Conditions: for In vitro sensitivity of the cells to the drug: sensitive if IC50 lower than or equal to that in 786-O cells. The method, then:
as §2, §3, §4

For experiment [4], the system named is ERK, AKT and S6K activity in CC cells. In words: Immunoblotting of signaling pathways in CC cells. Type of experiment: cell-based, human. The method, then: [The procedure below names another cell line; the source lists this cell line under the same test.] as §1, with “inhibitor. […] (TIF) Click here for additional data file.” for “inhibitor.”
Experiment [5] concerns metastatic RCC. In words: Response of the treated metastatic RCC patients (CT scan). Type of experiment: in vivo, human. Conditions: for CT scan outcome, first TFE3 RCC patient, later treatments: after nephrectomy: sunitinib 50 mg per day second cycle, then sorafenib 400 mg twice a day; for CT scan outcome, first TFE3 RCC patient, later treatments / Clinical outcome, ccRCC patient: then everolimus; for Clinical outcome, ccRCC patient: after nephrectomy: sunitinib 50 mg per day; for Clinical outcome, second TFE3 RCC patient: sunitinib first, then anti-mTOR treatment. An excerpt: The Ethic departments of the University hospital and of the Cancer centre (Centre Antoine Lacassagne), Nice, FRANCE specifically approved this study. Participants provide their written informed consent to participate in this study and to publish these case details according to our institutional ethics rules. Bone, lung or liver metastasis was confirmed for three RCC patients by magnetic resonance imaging. For the first and the third patient, the pathology report indicated a Fuhrman grade 3, pT3a ccRCC. FISH and immunohistochemistry confirmed Xp11.2 translocation, the presence of a TFE3-NONO fusion and over-expression of the fusion protein (TF RCC, Fig. 1A, 1B, 1C).
The first TFE3 RCC patient was treated with 37.5 mg sunitinib per day for 6 weeks the dose was increased to 50 mg per day by the seventh week. […] Left nephrectomy with lymphadenectomy was performed in April 2011 after a 30-day interruption in sunitinib treatment. […] Sunitinib treatment at 50 mg per day was resumed for a second cycle of 4 weeks. […] Sunitinib treatment was stopped and replaced by treatment with everolimus. […] Everolimus was replaced by sorafenib (400 mg twice a day).
For the ccRCC patient, right nephrectomy was performed in December 2011. Sunitinib treatment at 50 mg per day was started in January 2012. In November 2012, the patient was stable and sunitinib treatment was stopped. […] The patient was treated with everolimus in May 2013. […] The patient was placed in palliative care.
For the second TFE3 RCC patient, sunitinib treatment was started in April 2012. […] A specific ascite developed in mid-November 2012.

Regarding `CO[C@H]1C[C@@H]2CC[C@@H](C)[C@@](O)(O2)C(=O)C(=O)N2CCCC[C@H]2C(=O)O[C@H]([C@H](C)C[C@@H]2CC[C@@H](OCCO)[C@H](OC)C2)CC(=O)[C@H](C)/C=C(\C)[C@@H](O)[C@@H](OC)C(=O)[C@H](C)C[C@H](C)/C=C/C=C/C=C/1C` [everolimus], in experiment [1], the AKT degradation result is “induced AKT degradation”, the “ERK activity (pERK)” value is listed as “inhibited” and the “S6 kinase (S6K) activity (pS6K)” value is given as “inhibited”. In experiment [2], the “IC50 compared with 786-O cells” value is “lower” and the “In vitro sensitivity of the cells to the drug” value (shortened to “In vitro sensitivity”) is listed as “sensitive”. Moreover, in experiment [3], the “In vitro sensitivity” value is recorded as “insensitive”. Besides, in experiment [4], the AKT activity result is reported as “reactivation” and the S6K activity result is listed as “inhibited”. Further, in experiment [5], the “CT scan outcome, first TFE3 RCC patient, later treatments” value (from here on “CT scan outcome … later treatments”) was “progression into the mediastinum, abdomen and pelvis”; the “Clinical outcome, ccRCC patient” value is listed as “stability of the lesions but progression was observed in October 2013”; the “Clinical outcome, second TFE3 RCC patient” value was “transient sensitivity”.
Regarding `CNC(=O)c1cc(Oc2ccc(NC(=O)Nc3ccc(Cl)c(C(F)(F)F)c3)cc2)ccn1` [sorafenib], in experiment [1], the AKT degradation result is “induced AKT degradation”, the “ERK activity (pERK)” value was “inhibited” and the “S6 kinase (S6K) activity (pS6K)” value was “inhibited”. In experiment [2], the “IC50 compared with 786-O cells” value is “equivalent” and the “In vitro sensitivity” value is given as “sensitive”. For the same compound, the “In vitro sensitivity” value in experiment [3] was “insensitive”. Moreover, in experiment [4], the AKT activity entry is recorded as “potentiated”, the ERK activity result is “slightly inhibited” and the S6K activity result is listed as “potentiated”. Moreover, the “CT scan outcome … later treatments” value in experiment [5] was “stability of the lesions”.
Consider `CCN(CC)CCNC(=O)c1c(C)[nH]c(/C=C2\C(=O)Nc3ccc(F)cc32)c1C` [sunitinib], for which, in experiment [1], the “ERK activity (pERK)” value is “did not” and the “S6 kinase (S6K) activity (pS6K)” value is reported as “did not”. In addition, in experiment [2], the “IC50 compared with 786-O cells” value is “equivalent” and the “In vitro sensitivity” value is listed as “sensitive”. In experiment [3] (48 hours of treatment), the “IC50 compared with 786-O cells” value was “equivalent”. Also, in experiment [3], the “In vitro sensitivity” value is recorded as “sensitive”. Also, in experiment [4], the AKT activity result was “strongly inhibited”, the ERK activity result is listed as “without affecting” and the S6K activity result is listed as “without affecting”. For the same compound, the “CT scan outcome, first TFE3 RCC patient, first sunitinib course” value in experiment [5] (37.5 mg per day for 6 weeks then 50 mg per day, CT 5 weeks after the start) is “regression of the tumor and of the lymphatic nodes”. In experiment [5], the “CT scan outcome … later treatments” value is reported as “increasing size of the pelvic adenopathy”; the “Clinical outcome, ccRCC patient” value is listed as “stable”; the “Clinical outcome, second TFE3 RCC patient” value is recorded as “responsive until October 2012”.

The values above are taken from publication PMC3968004, “The Relevance of Testing the Efficacy of Anti-Angiogenesis Treatments on Cells Derived from Primary Tumors: A New Method for the Personalized Treatment of Renal Cell Carcinoma” (PLoS ONE, 2014).
